Results as given in patent US6630472B1, “Compounds, pharmaceutical compositions, and methods for stimulating neuronal growth and elongation” (priority 1998, dated 2003).

molecular target: FKBP12 (Homo sapiens, UniProt P62942); assay: rotamase inhibition assay (N-succinyl-Ala-Ala-Pro-Phe-p-nitroanilide, chymotrypsin-coupled); format: biochemical; details: @ 2.5 μM
Protocol: In the rotamase inhibition assay, isomerization of an artificial substrate N-succinyl-Ala-Ala-Pro-Phe-p-nitroanilide is followed spectrophotometrically. The assay includes the cis form of the substrate, FKBP12, the compound being tested, and chymotrypsin. Chymotrypsin is able to cleave p-nitroaniline from the trans form of the substrate, but not from the cis form. Release of p-nitroaniline is measured spectrophotometrically. Using this assay, various amounts of the FKBP rotamase-inhibiting compounds of formula (I-a) or (I-b) were added to cis-N-succinyl-alanine-alanine-proline-phenylalanine-para-nitroaniline (Bachem, 3132 Kashiwa Street, Torrance, Calif. 90505) in the presence of FKBP12 and chymotrypsin. Spectrophotometric measurements of p-nitroaniline concentrations allowed estimation of the apparent Ki values, which are provided in Table 1 below.

Sequence of FKBP12 (P62942 whole entry, species assumed): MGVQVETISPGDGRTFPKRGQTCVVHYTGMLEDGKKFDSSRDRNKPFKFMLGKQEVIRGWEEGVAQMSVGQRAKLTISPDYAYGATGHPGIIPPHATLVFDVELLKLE

SMILES | inhibition at 2.5 µM [%]
CCCC(CCC)C(=O)OC[C@@H](CN1CC2CCCC(C1=O)N2C(=O)C(=O)C(C)(C)CC)OCc1ccccc1 (stereo partly drawn) [Compound 55] | 40

same assay, conditions: Rotamase Ki(app)

SMILES | Ki [nM]
COc1cc(OC)cc(N2C=C3C4CCCC(C(=O)N3CC2=O)N4C(=O)C(=O)c2cc(OC)c(OC)c(OC)c2)c1 (stereo not drawn) [Compound 142] | 54

same assay, conditions: apparent Ki; NI = no inhibition at the concentrations tested; read-out: Rotamase Ki(app)

SMILES | Ki [nM]
COCOCC(C)(C)C(=O)C(=O)N1C2CCCC1C(=O)N(CCCCc1ccccc1)C2 (stereo not drawn) [Compound 63] | 3100
C=CCC(CC=C)C(=O)OC[C@H](CN1CC2CCCC(C1=O)N2C(=O)C(=O)C1(COC(C)=O)CCCC1)OCc1ccccc1 (stereo partly drawn) [Compound 111] | 663
COC1(C(=O)C(=O)N2[C@@H]3CCC[C@H]2C(=O)N2Cc4c(cc(C(F)(F)F)cc4C(F)(F)F)C[C@@H]32)CCCC1 [Compound 137] | 9700
COc1cc(C(=O)C(=O)N2C3C=CN(CCCCc4ccccc4)C(=O)C2CCC3)cc(OC)c1OC (stereo not drawn) [Compound 162, 1-[2-Oxo-3-(4-phenyl-butyl)-3,10-diaza-bicyclo[4.3.1]dec-4-en-10-yl]-2-(3,4,5-trimethoxy-phenyl)-ethane-1,2-dione] | 347
COc1cc(OC)cc(N2C=C3C4CCCC(C(=O)N3CC2=O)N4C(=O)C(=O)C2(COC(C)=O)CCCC2)c1 (stereo not drawn) [Compound 143] | 190
COC1(C(=O)C(=O)N2C3CCCC2C2=CN(C4CCCC4)C(=O)CN2C3=O)CCCC1 (stereo not drawn) [Compound 116] | 960
CCC(=O)OC1(C(=O)C(=O)N2C3CCCC2C2=CN(C4CCCC4)C(=O)CN2C3=O)CCCC1 (stereo not drawn) [Compound 144] | 1200
COCOC1(C(=O)C(=O)N2C3CCCC2C2=CN(C4CCCC4)C(=O)CN2C3=O)CCCC1 (stereo not drawn) [Compound 135] | 1400
COCC(=O)OC1(C(=O)C(=O)N2C3CCCC2C(=O)N(CCCCc2ccccc2)C3)CCCC1 (stereo not drawn) [Compound 101] | 1400
CC(C)C(=O)OC1(C(=O)C(=O)N2C3CCCC2C2=CN(C4CCCC4)C(=O)CN2C3=O)CCCC1 (stereo not drawn) [Compound 150] | 1500
COc1cc(C(=O)C(=O)N2C3CCCC2C2=CN(C4CCCC4)C(=O)CN2C3=O)cc(OC)c1OC (stereo not drawn) [Compound 117] | 84
C=CCC(CC=C)C(=O)OC[C@H](CN1CC2CCCC(C1=O)N2C(=O)C(=O)C1(COC(=O)COC)CCCC1)OCc1ccccc1 (stereo partly drawn) [Compound 110] | 86
CC(=O)OCC1(C(=O)C(=O)N2C3CCCC2C(=O)N(CCCCc2ccccc2)C3)CCCC1 (stereo not drawn) [Compound 62] | 160
CCC(CC)(COC(=O)COC)C(=O)C(=O)N1C2CCCC1C(=O)N(CCCCc1ccccc1)C2 (stereo not drawn) [Compound 81] | 1100
C=CCC(CC=C)C(=O)OC[C@@H](CN1CC2CCCC(C1=O)N2C(=O)C(=O)c1cc(OC)c(OC)c(OC)c1)OCc1ccccc1 (stereo partly drawn) [Compound 76] | 112
CCC(CC)(COC(C)=O)C(=O)C(=O)N1C2CCCC1C(=O)N(CCCCc1ccccc1)C2 (stereo not drawn) [Compound 61] | 790
COc1cc(C(=O)C(=O)N2C3CCCC2C(=O)N(C[C@H](CO)OCc2ccccc2)C3)cc(OC)c1OC (stereo partly drawn) [Compound 45] | 580
CO[C@@H](C)[C@@H]1CC[C@@H](C)[C@](O)(C(=O)C(=O)N2C3CCCC2C(=O)N(CCCCc2ccccc2)C3)C1 (stereo partly drawn) [Compound 99] | 3700
CCC(CC)C(=O)C(=O)N1C2CCCC1C(=O)N(CCCCc1ccccc1)C2 (stereo not drawn) [Compound 68] | 2500
COc1cc(C(=O)C(=O)N2C3CCCC2C(=O)N(CCCCCc2ccccc2)C3=O)cc(OC)c1OC [Compound 38] | 298
COc1cc(C(=O)C(=O)N2C3CCCC2C(OC)N(CCCCc2ccccc2)C3=O)cc(OC)c1OC (stereo not drawn) [Compound 37] | 222
CCC(C)(C)C(=O)C(=O)N1C2CCCC1C(=O)N(C[C@H](CO)OCc1ccccc1)C2 (stereo partly drawn) [Compound 58] | 3000

SMILES | Ki [nM]
C=CCC(CC=C)C(=O)OC[C@H](CN1CC2CCCC(C1=O)N2C(=O)C(=O)c1cc(OC)c(OC)c(OC)c1)OCc1ccccc1 (stereo partly drawn) [Compound 73] | 63
COc1cc(C(=O)C(=O)N2C3CCCC2C(=O)N(C(CO)COCc2ccccc2)C3)cc(OC)c1OC (stereo not drawn) [Compound 51] | 4000
COC(OC)C(=O)OC1(C(=O)C(=O)N2C3CCCC2C(=O)N(CCCCc2ccccc2)C3)CCCC1 (stereo not drawn) [Compound 102] | 690
COC1(C(=O)C(=O)N2C3CCCC2C2=Cc4cc(C(F)(F)F)cc(C(F)(F)F)c4CN2C3=O)CCCC1 (stereo not drawn) [Compound 146] | > 50000
COc1cc(OC)cc(N2C=C3C4CCCC(C(=O)N3CC2=O)N4C(=O)C(=O)C2(c3ccccc3)CCCC2)c1 (stereo not drawn) [Compound 156] | 1500
COc1cc(C(=O)C(=O)N2C3CCCC2C(=O)N(C2CCCCC2)C3)cc(OC)c1OC (stereo not drawn) [Compound 44] | 3000
COC(COC1(C(=O)C(=O)N2C3CCCC2C(=O)N(CCCCc2ccccc2)C3)CCCC1)OC (stereo not drawn) [Compound 103] | 1200
COc1cc(C(=O)C(=O)N2C3CCCC2C(=O)N(C[C@@H](CO)OCc2ccccc2)C3)cc(OC)c1OC (stereo partly drawn) [Compound 50] | 560
C=CCC(CC=C)C(=O)OC[C@@H](CN1CC2CCCC(C1=O)N2C(=O)C(=O)C(C)(C)CC)OCc1ccccc1 (stereo partly drawn) [Compound 75] | 790
CC(=O)OCC1(C(=O)C(=O)N2C3CCCC2C(=O)N(CCCCc2ccccc2)C3)CCCCC1 (stereo not drawn) [Compound 86] | 1300
COc1ccc2c(c1)C(OC)C1C3CCCC(C(=O)N1C2)N3C(=O)C(=O)c1cc(OC)c(OC)c(OC)c1 (stereo not drawn) [Compound 74] | 111
COc1ccc(CN2C(=O)C3CCCC(C2C#N)N3C(=O)C(=O)c2cc(OC)c(OC)c(OC)c2)cc1 (stereo not drawn) [Compound 80] | 1800
COC[C@@H]1CC[C@@H](C)[C@](O)(C(=O)C(=O)N2C3CCCC2C2=CN(C4CCCC4)C(=O)CN2C3=O)C1 (stereo partly drawn) [Compound 140] | 10000
CC(C)[C@@H]1CC[C@@H](C)[C@](C)(C(=O)C(=O)N2C3CCCC2C(=O)N(CCOCc2ccccc2)C3)C1 (stereo partly drawn) [Compound 54] | 6000
O=C1C2CCCC(CN1CCCCc1ccccc1)N2C(=O)C(=O)C1(O)CCCC1 (stereo not drawn) [Compound 95] | 1200
CC(=O)OCC1(C(=O)C(=O)N2C3CCCC2C2=CN(C4CCCC4)C(=O)CN2C3=O)CCCC1 (stereo not drawn) [Compound 121] | 780
CCC(C)(C)C(=O)C(=O)N1C2CCCC1C1c3cccc(OC)c3CCN1C2=O (stereo not drawn) [Compound 87] | 5000
CCC(C)(C)C(=O)C(=O)N1C2CCCC1C(=O)N(C[C@@H](CO)OCc1ccccc1)C2 (stereo partly drawn) [Compound 59] | 3800
CCC(C)(C)C(=O)C(=O)N1C2CCCC1[C@@H]1OCCN1C2=O (stereo partly drawn) [Compound 97] | 9000
COCOCC1(C(=O)C(=O)N2C3CCCC2C(=O)N(CCCCc2ccccc2)C3)CCCC1 (stereo not drawn) [Compound 85] | 324
CCC(C)(C)C(=O)C(=O)N1C2CCCC1C(=O)N(C1CCCCC1)C2 (stereo not drawn) [Compound 57] | 74000
CCC(C)(C)C(=O)C(=O)N1C2CCCC1C(=O)N([C@H]1CCC[C@@H]1OCc1ccccc1)C2 (stereo partly drawn) [Compound 78] | 4100

SMILES | Ki [nM]
COc1cc(C(=O)C(=O)N2C3CCCC2C(=O)N(Cc2ccccc2)C3=O)cc(OC)c1OC [Compound 34] | 206
CCC(C)(C)C(=O)C(=O)N1C2CCCC1C(=O)N([C@H]1CCC[C@@H]1OCc1ccccc1)C2 (stereo partly drawn) [Compound 77] | 20500
COC1(C(=O)C(=O)N2C3CCCC2C(=O)N(CCCCc2ccccc2)C3)CCCC1 (stereo not drawn) [Compound 100] | 627
COc1cc(C(=O)C(=O)N2C3CCCC2C(=O)N([C@H]2CCC[C@@H]2OCc2ccccc2)C3)cc(OC)c1OC (stereo partly drawn) [Compound 72] | 240
COCOC1(C(=O)C(=O)N2[C@@H]3CCC[C@H]2C(=O)N2CC(=O)N(CC(OC)OC)C[C@H]32)CCCC1 [Compound 119] | > 40000
CCCC(CCC)C(=O)OC[C@@H](CN1CC2CCCC(C1=O)N2C(=O)C(=O)c1cc(OC)c(OC)c(OC)c1)OCc1ccccc1 (stereo partly drawn) [Compound 46] | 448
COc1cc(OC)cc(N2C=C3C4CCCC(C(=O)N3CC2=O)N4C(=O)C(=O)C2(OC)CCCC2)c1 (stereo not drawn) [Compound 151] | 530
COc1cc(C(=O)C(=O)N2C3CCCC2C(=O)N(CCc2ccccc2)CC3)cc(OC)c1OC (stereo not drawn) [Compound 159, 1-(2-Oxo-3-phenethyl-3,10-diaza-bicyclo[4.3.1]dec-10-yl)-2-(3,4,5-trimethoxy-phenyl)-ethane-1,2-dione] | 760
COC[C@@H]1CC[C@@H](C)[C@](O)(C(=O)C(=O)N2C3CCCC2C(=O)N(Cc2ccc4ccccc4c2)C3)C1 (stereo partly drawn) [Compound 138] | 1300
COc1cc(C(=O)C(=O)N2C3CCCC2C(=O)N(C(COCc2ccccc2)COC(C)=O)C3)cc(OC)c1OC (stereo not drawn) [Compound 53] | 5000
CCC(C)(C)C(=O)C(=O)N1C2CCCC1C1=CN(CC3CC3)C(=O)CN1C2=O (stereo not drawn) [Compound 123] | 1200
COCOC1(C(=O)C(=O)N2C3CCC[C@@H]2[C@@H]2Cc4c(cc(OC)cc4OC)CN2C3=O)CCCC1 [Compound 136] | 2400
COCOC1(C(=O)C(=O)N2C3CCCC2C(=O)N(CCCCc2ccccc2)C3)CCCC1 (stereo not drawn) [Compound 112] | 1000
CCC(C)(C)C(=O)C(=O)N1C2CCCC1C1=CN(C3CCCC3)C(=O)CN1C2=O (stereo not drawn) [Compound 118] | 1000
CCOC1C2CCCC(C(=O)N1Cc1ccc(OC)cc1)N2C(=O)C(=O)c1cc(OC)c(OC)c(OC)c1 (stereo not drawn) [Compound 79] | 700
COc1cc(C(=O)C(=O)N2C3CCCC2C(=O)N(CCCCc2ccccc2)C3)cc(OC)c1OC (stereo not drawn) [Compound 33] | 227
COc1cc(C(=O)C(=O)N2C3CCCC2C2OCCN2C3=O)cc(OC)c1OC (stereo not drawn) [Compound 96] | 1400
COc1cc(C(=O)C(=O)N2C3CCCC2C(=O)N(CCOCc2ccccc2)C3)cc(OC)c1OC (stereo not drawn) [Compound 7] | 160
CCC(C)(C)C(=O)C(=O)N1C2CCCC1C(=O)N(CCCCc1ccccc1)C2=O [Compound 36] | 445
COc1cc(C(=O)C(=O)N2C3CCCC2C(=O)N(CCCCc2ccccc2)C3=O)cc(OC)c1OC [Compound 35] | 73
